Assays:
[1] = test system: green peach aphid (Myzus persicae); test: Myzus test (MYZUPE spray treatment); format: in vivo; conditions: for Kill rate after 5d in %: 100 g/ha, spray treatment
Method: Myzus Test (MYZUPE Spray Treatment) Solvents: 78 parts by weight of acetone • • 1.5 parts by weight of dimethylformamide Emulsifier: 0.5 part by weight of alkylaryl polyglycol ether To produce a suitable preparation of active compound, 1 part by weight of active compound is mixed with the stated amounts of solvents and emulsifier and the concentrate is diluted with emulsifier-containing water to the desired concentration. Discs of Chinese cabbage (Brassica pekinensis), which are infested by all stages of the green peach aphid (Myzus persicae) are sprayed with an active compound preparation of the desired concentration. After the desired period of time, the activity in % is determined. 100% means that all aphids have been killed; 0% means that none of the aphids have been killed.

[2] = test system: caterpillars of the army worm (Spodoptera frugiperda); test: Spodoptera frugiperda test (SPODFR spray treatment); format: in vivo; conditions: for Kill rate after 7d in %: 100 g/ha, spray treatment
Method: Spodoptera frugiperda Test (SPODFR Spray Treatment) Solvents: 78 parts by weight of acetone • • 1.5 parts by weight of dimethylformamide Emulsifier: 0.5 part by weight of alkylaryl polyglycol ether To produce a suitable preparation of active compound, 1 part by weight of active compound is mixed with the stated amounts of solvents and emulsifier and the concentrate is diluted with emulsifier-containing water to the desired concentration. Discs of maize leaves (Zea mays) are sprayed with an active compound preparation of the desired concentration and after drying populated with caterpillars of the army worm (Spodoptera frugiperda). After the desired period of time, the activity in % is determined. 100% means that all of the caterpillars have been killed; 0% means that none of the caterpillars have been killed.

[3] = logP determination by HPLC (reversed-phase C18), EEC Directive 79/831 Annex V.A8; format: physicochemical; conditions: HPLC reversed-phase C18, 43° C., acidic range pH 2.7
Method: The logP values given in the tables and Preparation Examples above are determined in accordance with EEC Directive 79/831 Annex V.A8 by HPLC (High Performance Liquid Chromatography) on a reversed-phase column (C 18). Temperature: 43° C. The determination by LC-MS in the acidic range is carried out at pH 2.7 using 0.1% aqueous formic acid and acetonitrile (contains 0.1% formic acid) as mobile phases; linear gradient from 10% acetonitrile to 95% acetonitrile. Calibration is carried out using unbranched alkan-2-ones (having 3 to 16 carbon atoms) with known logP values (determination of the logP values by the retention times using linear interpolation between two successive alkanones).

[4] = test system: larvae of the mustard beetle (Phaedon cochleariae); test: Phaedon test (sprayed Chinese cabbage discs); format: in vivo; conditions: for Kill rate after 7d in %: 100 g/ha
Method: Phaedon Test Solvents: 78 parts by weight of acetone • • 1.5 parts by weight of dimethylformamide Emulsifier: 0.5 part by weight of alkylaryl polyglycol ether To produce a suitable preparation of active compound, 1 part by weight of active compound is mixed with the stated amounts of solvents and emulsifier and the concentrate is diluted with emulsifier-containing water to the desired concentration. Discs of Chinese cabbage (Brassica pekinensis) are sprayed with an active compound preparation of the desired concentration and, after drying, populated with larvae of the mustard beetle (Phaedon cochleariae). After the desired period of time, the activity in % is determined. 100% means that all beetle larvae have been killed; 0% means that none of the beetle larvae have been killed.

[5] = test system: Spodoptera frugiperda larvae; test: Spodoptera frugiperda test (treatment by watering); format: in vivo; conditions: for Kill rate after 14d in %: 20 ppm, treatment by watering
Method: Spodoptera frugiperda Test Solvent: 7 parts by weight of dimethylformamide Emulsifier: 2 parts by weight of alkylaryl polyglycol ether To produce a suitable preparation of active compound, 1 part by weight of active compound is mixed with the stated amounts of solvent and emulsifier and the concentrate is diluted with water to the desired concentration. Maize plants (Zea mays) are watered with an active compound preparation of the desired concentration and infected with Spodoptera frugiperda larvae. After the desired period of time, the kill in % is determined. 100% means that all larvae have been killed; 0% means that none of the larvae have been killed.

[6] = test system: Spodoptera exigua, resistant strain; test: Spodoptera exigua test; resistant strain; format: in vivo; conditions: for Kill rate after 7d in %: 20 ppm, resistant strain
Method: Spodoptera exigua Test; Resistant Strain
Solvent: 7 parts by weight of dimethylformamide
Emulsifier: 2 parts by weight of alkylaryl polyglycol ether
To produce a suitable preparation of active compound, 1 part by weight of active compound is mixed with the stated amounts of solvent and emulsifier and the concentrate is diluted with emulsifier-containing water to the desired concentration.
Cabbage leaves (Brassica oleracea) are treated by being dipped into the active compound preparation of the desired concentration and populated with caterpillars of the army worm (Spodoptera exigua, resistant strain) while the leaves are still moist.
After the desired period of time, the kill in % is determined. 100% means that all caterpillars have been killed; 0% means that none of the caterpillars have been killed.

[7] = test system: caterpillars of the diamondback moth (Plutella xylostella); test: Plutella test (leaf dip); format: in vivo
Method: (§1) Plutella Test Solvent: 7 parts by weight of dimethylformamide Emulsifier: 2 parts by weight of alkylaryl polyglycol ether To produce a suitable preparation of active compound, 1 part by weight of active compound is mixed with the stated amounts of solvent and emulsifier and the concentrate is diluted with emulsifier-containing water to the desired concentration. Cabbages leaves (Brassica oleracea) are treated by being dipped into the active compound preparation of the desired concentration and populated with caterpillars of the diamondback moth (Plutella xylostella) while the leaves are still moist. After the desired period of time, the kill in % is determined. 100% means that all caterpillars have been killed; 0% means that none of the caterpillars have been killed.

[8] = test system: caterpillars of the army worm (Spodoptera exigua); test: Spodoptera exigua test (leaf dip); format: in vivo
Method: as §1, with “Spodoptera exigua” for “Plutella”, “Cabbage” for “Cabbages”, “army worm (Spodoptera exigua)” for “diamondback moth (Plutella xylostella)”

[9] = test system: caterpillars of the cotton bollworm (Heliothis armigera); test: Heliothis armigera test (leaf dip); format: in vivo
Method: as §1, with “Heliothis armigera” for “Plutella”, “Soya bean” for “Cabbages”, “(Glycine max.)” for “(Brassica oleracea)”, “cotton bollworm (Heliothis armigera)” for “diamondback moth (Plutella xylostella)”

SMILES | activity in the Spodoptera frugiperda test, spray treatment (in words) [2] | Kill rate after 7d in % [2] | logP [3] | activity in the Phaedon test (in words) [4] | Kill rate after 7d in % [4] | other results
O=C(Nc1c(Cl)cc(Cl)cc1C1=NOCCO1)c1cc(Cl)nn1-c1ncccc1Cl [Example I-1-2] | good activity | 100% | 3.07 | good activity | 100% | activity in the Myzus test, spray treatment (in words) [1]: good activity; Kill rate after 5d in % [1]: 80%
Cc1cccc(C2=NOCCO2)c1NC(=O)c1cc(C(F)(F)F)nn1-c1ncccc1Cl [Example I-1-3] | good activity | 100% | 3.00 |  |  | activity in the Spodoptera frugiperda test, watering (in words) [5]: good activity; Kill rate after 14d in % [5]: 95%
Cc1cccc(C2=NOCCO2)c1NC(=O)c1cc(Br)nn1-c1ncccc1Cl [Example I-1-4] | good activity | 100% | 2.59 |  |  | 
Cc1cc(Cl)cc(C2=NOCCO2)c1NC(=O)c1cc(C(F)(F)F)nn1-c1ncccc1Cl [Example I-1-6] | good activity | 100% | 3.50 | good activity | 100% | activity in the Spodoptera exigua test, resistant strain (in words) [6]: good activity; Kill rate after 7d in % [6]: 100%; activity in the Spodoptera frugiperda test, watering (in words) [5]: good activity; Kill rate after 14d in % [5]: 98%; activity in the Plutella test (in words) [7]: good activity; Kill rate after 7d in % ([7]; 20 ppm, 7 d): 100%; activity in the Spodoptera exigua test (in words) [8]: good activity; Kill rate after 7d in % ([8]; 100 ppm): 100%
Cc1cc(Br)cc(C2=NOCCO2)c1NC(=O)c1cc(Cl)nn1-c1ncccc1Cl [Example I-1-10] | good activity | 100% | 3.18 | good activity | 100% | activity in the Spodoptera exigua test, resistant strain (in words) [6]: good activity; Kill rate after 7d in % [6]: 100%; activity in the Spodoptera frugiperda test, watering (in words) [5]: good activity; Kill rate after 14d in % [5]: 90%; activity in the Heliothis armigera test (in words) [9]: good activity; Kill rate after 7d in % ([9]; 20 ppm, 7 d): 100%; activity in the Spodoptera exigua test (in words) [8]: good activity; Kill rate after 7d in % ([8]; 20 ppm): 100%
Cc1cc(Br)cc(C2=NOCCO2)c1NC(=O)c1cc(Br)nn1-c1ncccc1Cl [Example I-1-12] | good activity | 100% | 3.24 | good activity | 100% | 
O=C(Nc1c(Cl)cc(Cl)cc1C1=NOCCO1)c1cc(Br)nn1-c1c(Cl)cccc1Cl [Example I-1-13] |  |  | 3.98 | good activity | 100% | 
Cc1cc(Cl)cc(C2=NOCCO2)c1NC(=O)c1cc(C(F)(F)F)nn1-c1ncccn1 [Example I-1-14] |  |  | 2.79 |  |  | 
O=C(Nc1c(Cl)cc(Cl)cc1C1=NOCCO1)c1cc(C(F)(F)F)nn1-c1ncccn1 [Example I-1-15] |  |  | 2.80 |  |  | 
O=C(Nc1c(Cl)cc(Cl)cc1C1=NOCCO1)c1cc(Br)cn1-c1ncccc1Cl [Example I-1-21] | good activity | 100% | 3.48 | good activity | 100% | 
Cc1cc(Cl)cc(C2=NOCCO2)c1NC(=O)c1cc(Br)cn1-c1ncccc1Cl [Example I-1-25] | good activity | 83% | 3.50 | good activity | 83% | 
Cc1cc(I)cc(C2=NOCCN2)c1NC(=O)c1cc(Cl)nn1-c1ncccc1Cl [Example I-1-26] | good activity | 100% | 2.44 | good activity | 100% | activity in the Myzus test, spray treatment (in words) [1]: good activity; Kill rate after 5d in % [1]: 100%
O=C(Nc1c(Cl)cccc1C1=NOCCN1)c1cc(Br)nn1-c1ncccc1Cl [Example I-1-27] |  |  | 1.89 |  |  | 
Cc1cccc(C2=NOCCN2)c1NC(=O)c1cc(Br)cn1-c1ncccc1Cl [Example I-1-28] | good activity | 100% | 1.83 | good activity | 100% | 
Cc1cc(Br)cc(C2=NOCCN2)c1NC(=O)c1cc(C(F)(F)F)nn1-c1ncccc1Cl [Example I-1-29] | good activity | 100% | 2.80 | good activity | 100% | activity in the Myzus test, spray treatment (in words) [1]: good activity; Kill rate after 5d in % [1]: 100%
Cc1cc(Br)cc(C2=NOCCN2)c1NC(=O)c1cc(Cl)nn1-c1ncccc1Cl [Example I-1-30] | good activity | 100% | 2.35 | good activity | 100% | activity in the Myzus test, spray treatment (in words) [1]: good activity; Kill rate after 5d in % [1]: 100%

From patent publication US8062995B2, “Dioxazine-substituted arylamides” (Bayer CropScience AG, priority 2005, dated 2011)
